{"source": "patent US20110172305A1", "about": "“Endocannabinoids for Enhancing Growth and Development in Infants” (priority 2007, published 2011)", "key": {"[1]": {"test": "Body weight of pups raised in small or large (malnourished) litters, daily neonatal injections", "assay_type": "in vivo, mouse (ICR strain)", "description": "(§1) Using an environmental manipulation technique, within 24 hours of birth, half of each mouse litter (ICR strain) was cross-fostered to the dam of another litter born on the same day. The mouse pups of every two litters were divided up between the 2 dams such that one dam reared 4 pups (‘small litter’) and the other dam raised 18-20 pups (large litter). Pups raised in the large litter were expected to suffer from malnutrition due to the crowded environment. Half of each litter received daily injections of the endocannabinoid 2-arachidonoyl glycerol (2-AG) or THC, the major psychoactive molecule in the Cannabis sativa (marihuana) plant for the first 5 days of life. The doses used were 1 or 5 mg/kg THC or 0.1, 1 or 5 mg/kg 2-AG. Body weights were recorded daily. The body weight of pups from the small and the large litters were analyzed by two-way analysis-of-variance."}, "[2]": {"test": "Motor activity (ambulation) in an open field at 3 months of age", "assay_type": "in vivo, mouse (ICR strain)", "settings": "tested at 3 months of age", "description": "(§2) At adulthood (3 months of age), mice were subjected to the open field assay for motor activity (ambulation and rearing), to the Porsolt forced swim test for anti-depressant-like effects and to the prepulse-inhibited acoustic startle response (PPI) assay which assesses sensorimotor gating.\nMotor activity in an Open field: Mice were placed in a transparent open field (30×40 cm, divided into 20 squares of equal size), measuring horizontal (ambulatory) and vertical activity, for 6 minutes (min), by manually scoring the number of squares crossed (see (Fride and Mechoulam, 1993).\nThe bottom of the open field was divided into 20 squares of equal size. Activity was assessed as the number of squares crossed."}, "[3]": {"test": "Porsolt forced swim test at adulthood", "assay_type": "in vivo, mouse (ICR strain)", "settings": "treated in infancy, tested at adulthood; FIG. 3A", "excerpt": "as §2\nPorsolt forced swim test: The forced swimming test was based on previous designs (Harkin et al., 2004; Petit-Demouliere et al., 2005; Treit and Menard, 1998): mice were placed in a 2 liter glass beaker (11 cm diameter) filled with water (24+1° C.) up to […] from the bottom (so that the mouse could not touch the bottom) and 8 cm from the rim (so that the mouse cannot escape). […] Immobility at 9 min was analyzed by a t-test, P<0.05."}, "[4]": {"test": "Prepulse inhibition (PPI) of the acoustic startle response", "assay_type": "in vivo, mouse", "settings": "treated at birth; FIG. 7", "description": "Prepulse Inhibition (PPI) of the startle reflex: In this experimental model a weak stimulus (70-90 db tone) inhibits the subsequent response to a strong stimulus (120 db tone). Reduced prepulse inhibition of the startle reflex (PPI) is taken as an additional index of the positive symptoms of schizophrenia (Josselyn and Vaccarino, 1998; Swerdlow and Geyer, 1998). PPI was assessed as described previously (Varty et al., 2001). In the model employed, mice were placed in a startle chamber (Hamilton and Kinder, Poway, Calif., USA). A high frequency loudspeaker produces a 65 db background noise and the various acoustic stimuli: 77 and 81 db prepulse; 120 db startle, separated by 100 ms. The startle response of the mouse is transduced and stored by a computer. Sixty-five readings are taken at 1 ms intervals, and the average amplitude is taken as the startle response. Each test session lasts for about 20 min and consists of 10 presentations of each of the six trial types (Prepulse, Prepulse+Pulse, Pulse or no stimulus other than background) separated by 15 s. The amount of prepulse inhibition is calculated as %PPI=[1-(startle response for Prepulse+Pulse)/(startle response for Pulse alone)]×100."}, "[5]": {"test": "Intracerebral versus subcutaneous injection, pup body weight gain", "assay_type": "in vivo, mouse (ICR strain)", "settings": "day 1 of birth, FIG. 8A-E", "description": "Newborn (day 1 of birth) mouse pups (ICR strain) were injected subcutaneously (sc) with SR141716 (SR, 20 or 40 mg/kg), as described previously (Fride, 2004; Fride et al., 2003; Fride et al., 2001). In addition, littermates were injected with SR directly into the brain, at 2 depths (2-3 mm) and at several doses 4.5, 9.0 or 22.5 μg (between 50 and 10-fold lower concentrations than the sc injections)."}, "[6]": {"test": "Growth and survival of newborn Spiny wild mice", "assay_type": "in vivo, Spiny wild mice (acomys cahirinus)", "settings": "50 mg/kg", "excerpt": "FIG. 9A illustrates the relative state of maturation in terms of the growth curve during the first two postnatal weeks in laboratory (ICR strain) mice, compared to Spiny wild mice (acomys cahirinus) which is born at a more advanced stage of development. […] This is similar to the difference in brain maturation predicted by the model designed by Clancy and colleagues (Clancy et al., 2007), i.e., the day of birth of the spiny mouse being equivalent to postnatal day 8 in the laboratory mouse."}, "[7]": {"test": "Food intake ('milkbands') of pups raised in small or large litters", "assay_type": "in vivo, mouse (ICR strain)", "settings": "THC 1 or 5 mg/kg, daily injections for the first 5 days of life", "description": "as §1\nOn each subsequent day, pups were briefly separated from their mothers for the duration of weighing and scoring of the presence of “milkbands” in their stomachs. (As the stomach area in mouse pups is transparent, due to lack of hair and the thinness of the skin, the amount of milk consumed can be observed as a “milkband”)."}}, "data": [{"smiles": "CCCCC/C=C\\C/C=C\\C/C=C\\C/C=C\\CCCC(=O)OC(CO)CO", "note": "[2-AG, 2-arachidonoyl glycerol]", "values": [{"measurement": "effect on the growth curve", "setting": "[1]; 0.1 mg/kg (lowest dose), daily injections for the first 5 days of life", "value": "no effect on the growth curve"}, {"measurement": "body weight gain", "setting": "[1]; 1 mg/kg, daily injections for the first 5 days of life, malnourished (overcrowded) litters, FIG. 1", "value": "significantly enhanced body weight gain"}, {"measurement": "effect on the growth curve", "setting": "[1]; 5 mg/kg (highest dose), daily injections for the first 5 days of life", "value": "no effect on the growth curve"}, {"measurement": "body weight at 3 months of age versus control mice from large (malnourished) litter", "setting": "[1]; treated as neonates, large litter, FIG. 2", "value": "still had elevated body weights"}, {"measurement": "body weight at 3 months of age versus vehicle-treated mice raised in small litters", "setting": "[1]; treated as neonates, overcrowded litter, FIG. 2", "value": "did not differ significantly"}, {"measurement": "motor activity in open field (number of squares crossed)", "setting": "[2]; 2-AG at birth, FIG. 3B", "value": "did not differ from that of controls"}, {"measurement": "behavior in the Forced swim test (immobility time)", "setting": "[3]", "value": "displayed anti-depressant-like behavior"}]}, {"smiles": "Cc1c(C(=O)NN2CCCCC2)nn(-c2ccc(Cl)cc2Cl)c1-c1ccc(Cl)cc1", "note": "[Rimonabant]", "values": [{"measurement": "motor activity in open field (number of squares crossed)", "setting": "[2]; rimonabant at birth, ICR strain, FIG. 6, P<0.001", "value": "hyperactive"}, {"measurement": "sensorimotor gating, prepulse inhibition of acoustic startle response (% PPI) versus vehicle control", "setting": "[4]", "value": "significantly lower"}, {"measurement": "effect on pup growth", "setting": "[5]; injected directly into the brain, 2-3 mm depth, 4.5, 9.0 or 22.5 μg", "value": "none of the centrally injected regimens had any effect on pup growth"}, {"measurement": "body weight gain", "setting": "[5]; s.c. 20 or 40 mg/kg", "value": "significantly retarded body weight gain"}, {"measurement": "growth (body weight)", "setting": "[6]; FIG. 9B, P<0.0001", "value": "highly significant delay in growth"}, {"measurement": "mortality rate", "setting": "[6]; FIG. 9C, P<0.01 versus controls", "value": 60, "unit": "%"}]}, {"smiles": "CCCCCc1cc(O)c2c(c1)OC(C)(C)[C@@H]1CCC(C)=C[C@@H]21", "note": "[THC, Δ^9-tetrahydrocannabinol]", "values": [{"measurement": "effect on the body weight curve", "setting": "[1]; THC 1 or 5 mg/kg, daily injections for the first 5 days of life", "value": "Neither of the doses of THC had an effect"}, {"measurement": "effect on food intake ('milkbands')", "setting": "[7]", "value": "Neither of the doses of THC had an effect"}]}]}
